Measured values taken from patent US11725036B2, “Modified lipidated relaxin B chain peptides and their therapeutic use” (Sanofi, priority 2018, dated 2023).
Starred links: 1 amine or outer side, 2 acyl side, 3 side chain; linkers in the order of their positions; H or OH if unused. Non-standard residues stand in square brackets, D forms with d. Residues, ends and D or L forms follow the SMILES beside them. Groups on a side chain read outwards from the residue. *: point of attachment. X11 = CCCCCCCCCCCCCCCCCC(=O)N[C@@H](CCC(=O)N[C@@H](CCC(=O)N[C@@H](CCC(=O)N[C@@H](CCC(=O)NCCCOCCOCCOCCCNC(=O)CCC(=O)NCCCOCCOCCOCCCNC(=O)CCC(=O)NCCCOCCOCCOCCCN*)C(=O)O)C(=O)O)C(=O)O)C(=O)O; X1 = CCCCCCCCCCCCCCCC(=O)N[C@@H](CCC(=O)N[C@@H](CCC(=O)N[C@@H](CCC(=O)NCCCOCCOCCOCCCNC(=O)CCC(=O)NCCCOCCOCCOCCCNC(=O)CCC(=O)NCCCOCCOCCOCCCN*)C(=O)O)C(=O)O)C(=O)O; X6 = CCCCCCCCCCCCCC(=O)N[C@@H](CCC(=O)N[C@@H](CCC(=O)N[C@@H](CCC(=O)NCCCOCCOCCOCCCNC(=O)CCC(=O)NCCCOCCOCCOCCCNC(=O)CCC(=O)NCCCOCCOCCOCCCN*)C(=O)O)C(=O)O)C(=O)O; Phe(4-F) = N[C@@H](Cc1ccc(F)cc1)C(=O)O; γGlu = O=C(O)[C@H](CCC(=O)[*:2])N[*:1]; Palmitoyl = CCCCCCCCCCCCCCCC(=O)*; Suc = O=C(CCC(=O)[*:2])[*:1]; αMeK = C[C@](N)(CCCCN)C(=O)O; AEEA = NCCOCCOCC(=O)O; Aib = CC(C)(N)C(=O)O

Biological target: T1, RXFP1 (Homo sapiens, UniProt Q9HBX9)
T1 construct: OVCAR5 cells expressing endogenous RXFP1; endogenous in cells; host or cells: OVCAR5
T1 sequence (Q9HBX9 1-757): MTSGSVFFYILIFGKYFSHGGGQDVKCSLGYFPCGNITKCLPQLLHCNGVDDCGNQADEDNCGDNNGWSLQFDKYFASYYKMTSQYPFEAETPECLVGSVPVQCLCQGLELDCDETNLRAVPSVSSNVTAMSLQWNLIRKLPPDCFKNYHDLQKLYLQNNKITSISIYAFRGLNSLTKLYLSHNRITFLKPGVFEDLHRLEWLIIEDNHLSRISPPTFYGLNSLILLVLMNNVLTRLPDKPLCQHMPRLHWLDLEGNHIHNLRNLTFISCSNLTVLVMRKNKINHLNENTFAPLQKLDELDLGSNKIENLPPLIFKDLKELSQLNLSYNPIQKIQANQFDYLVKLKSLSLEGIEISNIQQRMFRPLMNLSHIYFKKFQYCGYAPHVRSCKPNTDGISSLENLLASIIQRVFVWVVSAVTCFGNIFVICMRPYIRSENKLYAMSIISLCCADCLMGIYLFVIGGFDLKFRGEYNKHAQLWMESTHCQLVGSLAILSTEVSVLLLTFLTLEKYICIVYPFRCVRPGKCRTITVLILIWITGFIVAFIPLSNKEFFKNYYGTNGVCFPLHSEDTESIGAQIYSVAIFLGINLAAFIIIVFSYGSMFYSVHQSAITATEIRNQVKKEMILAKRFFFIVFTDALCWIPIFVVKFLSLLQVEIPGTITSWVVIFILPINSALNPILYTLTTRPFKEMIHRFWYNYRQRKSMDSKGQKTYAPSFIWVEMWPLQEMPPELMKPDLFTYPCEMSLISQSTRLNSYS
Assay: OVCAR5 cAMP assay (HTRF)
Assay type: cell-based
Settings: for EC50: OVCAR 5 cells expressing endogenous RXFP1, cAMP readout; for Emax: OVCAR 5 cells, maximal cAMP relative to H2-relaxin
Procedure, shortened: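 Peptide agonism measured as intracellular cAMP (HTRF) after 30 min at 37° C in serum-free medium, following 40 min 1 mM IBMX preincubation of OVCAR5 cells. Nonlinear regression gave EC50; Emax % = 100 × compound maximal cAMP / H2-relaxin maximal cAMP.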

EC50 [nM] | Emax [%] | Compound
0.09 | 97 | CCCCCCCCCCCCCCCC(=O)N[C@@H](CCC(=O)N[C@@H](CCC(=O)N[C@@H](CCC(=O)NCCCOCCOCCOCCCNC(=O)CCC(=O)NCCCOCCOCCOCCCNC(=O)CCC(=O)NCCCOCCOCCOCCCNC(=O)CCC(=O)NCCCC[C@H](NC(=O)CNC(=O)[C@H](CCC(=O)O)NC(=O)C(C)(C)NC(=O)C(C)(C)NC(=O)[C@@H](NC(=O)[C@H](CCCCNC(C)=O)NC(=O)[C@H](C)NC(=O)[C@H](CCCNC(=N)N)NC(=O)[C@@H](NC(=O)[C@H](CCCNC(=N)N)NC(=O)[C@H](CCC(=O)O)NC(=O)[C@H](CCCNC(=N)N)NC(=O)CNC(=O)[C@H](CCC(=O)O)NC(=O)[C@H](CC(C)C)NC(C)=O)C(C)C)[C@@H](C)CC)C(=O)N[C@@H](CO)C(=O)N[C@H](C(=O)N[C@@H](Cc1ccc(F)cc1)C(=O)N[C@@H](CO)C(=O)NC(C)(C)C(=O)N[C@@H](CCCNC(=N)N)C(=O)N[C@@H](CCCNC(=N)N)C(=O)N[C@@H](CCCCNC(C)=O)C(N)=O)[C@@H](C)O)C(=O)O)C(=O)O)C(=O)O [compound 91] (Ac-LEGRERVRAK(Ac)I[Aib][Aib]EGK([Suc-X1])ST[Phe(4-F)]S[Aib]RRK(Ac)-NH2)
0.1 | 98 | CCCCCCCCCCCCCCCCCC(=O)N[C@@H](CCC(=O)N[C@@H](CCC(=O)N[C@@H](CCC(=O)N[C@@H](CCC(=O)NCCCOCCOCCOCCCNC(=O)CCC(=O)NCCCOCCOCCOCCCNC(=O)CCC(=O)NCCCOCCOCCOCCCNC(=O)CCC(=O)NCCCC[C@H](NC(=O)CNC(=O)[C@H](CCC(=O)O)NC(=O)C(C)(C)NC(=O)C(C)(C)NC(=O)[C@@H](NC(=O)[C@H](CCCCNC(C)=O)NC(=O)[C@H](C)NC(=O)[C@H](CCCNC(=N)N)NC(=O)[C@@H](NC(=O)[C@H](CCCCN)NC(=O)[C@H](CCC(=O)O)NC(=O)[C@H](CCCNC(=N)N)NC(=O)CNC(=O)[C@H](CCC(=O)O)NC(=O)[C@H](CC(C)C)NC(C)=O)C(C)C)[C@@H](C)CC)C(=O)N[C@@H](CO)C(=O)N[C@H](C(=O)N[C@@H](Cc1c[nH]c2ccccc12)C(=O)N[C@@H](CO)C(=O)NC(C)(C)C(=O)N[C@@H](CCCNC(=N)N)C(=O)N[C@@H](CCCCN)C(=O)N[C@@H](CCCCNC(C)=O)C(N)=O)[C@@H](C)O)C(=O)O)C(=O)O)C(=O)O)C(=O)O [compound 51] (Ac-LEGREKVRAK(Ac)I[Aib][Aib]EGK([Suc-X11])STWS[Aib]RKK(Ac)-NH2)
 | 94 | CCCCCCCCCCCCCCCC(=O)N[C@@H](CCC(=O)N[C@@H](CCC(=O)N[C@@H](CCC(=O)NCCCOCCOCCOCCCNC(=O)CCC(=O)NCCCOCCOCCOCCCNC(=O)CCC(=O)NCCCOCCOCCOCCCNC(=O)CCC(=O)NCCCC[C@H](NC(=O)CNC(=O)[C@H](CCC(=O)O)NC(=O)C(C)(C)NC(=O)C(C)(C)NC(=O)[C@@H](NC(=O)[C@H](CCCCNC(C)=O)NC(=O)[C@H](C)NC(=O)[C@H](CCCNC(=N)N)NC(=O)[C@@H](NC(=O)[C@H](CCCCN)NC(=O)[C@H](CCC(=O)O)NC(=O)[C@H](CCCNC(=N)N)NC(=O)CNC(=O)[C@H](CCC(=O)O)NC(=O)[C@H](CC(C)C)NC(C)=O)C(C)C)[C@@H](C)CC)C(=O)N[C@@H](CO)C(=O)N[C@H](C(=O)N[C@@H](Cc1c[nH]c2ccccc12)C(=O)N[C@@H](CO)C(=O)NC(C)(C)C(=O)N[C@@H](CCCNC(=N)N)C(=O)N[C@@H](CCCNC(=N)N)C(=O)N[C@@H](CCCCNC(C)=O)C(N)=O)[C@@H](C)O)C(=O)O)C(=O)O)C(=O)O [compound 31] (Ac-LEGREKVRAK(Ac)I[Aib][Aib]EGK([Suc-X1])STWS[Aib]RRK(Ac)-NH2)
1.8 | 91 | CCCCCCCCCCCCCC(=O)N[C@@H](CCC(=O)N[C@@H](CCC(=O)N[C@@H](CCC(=O)NCCCOCCOCCOCCCNC(=O)CCC(=O)NCCCOCCOCCOCCCNC(=O)CCC(=O)NCCCOCCOCCOCCCNC(=O)CCC(=O)NCCCC[C@H](NC(=O)CNC(=O)[C@H](CCC(=O)O)NC(=O)C(C)(C)NC(=O)C(C)(C)NC(=O)[C@@H](NC(=O)[C@H](CCCCNC(C)=O)NC(=O)[C@H](C)NC(=O)[C@H](CCCNC(=N)N)NC(=O)[C@@H](NC(=O)[C@H](CCCCN)NC(=O)[C@H](CCC(=O)O)NC(=O)[C@H](CCCNC(=N)N)NC(=O)CNC(=O)[C@H](CCC(=O)O)NC(=O)[C@H](CC(C)C)NC(C)=O)C(C)C)[C@@H](C)CC)C(=O)N[C@@H](CO)C(=O)N[C@H](C(=O)N[C@@H](Cc1ccccc1)C(=O)N[C@@H](CO)C(=O)N[C@@](C)(CCCCN)C(=O)N[C@@H](CCCNC(=N)N)C(=O)N[C@@H](C)C(=O)N[C@@H](CCCCNC(C)=O)C(N)=O)[C@@H](C)O)C(=O)O)C(=O)O)C(=O)O [compound 95] (Ac-LEGREKVRAK(Ac)I[Aib][Aib]EGK([Suc-X6])STFS[αMeK]RAK(Ac)-NH2)
1.5 | 84 | CCCCCCCCCCCCCCCC(=O)N[C@@H](CCC(=O)N[C@@H](CCC(=O)N[C@@H](CCC(=O)NCCOCCOCC(=O)NCCOCCOCC(=O)NCCOCCOCC(=O)NCCOCCOCC(=O)NCCCC[C@H](NC(=O)CNC(=O)[C@H](CCC(=O)O)NC(=O)C(C)(C)NC(=O)C(C)(C)NC(=O)[C@@H](NC(=O)[C@H](CCCCNC(C)=O)NC(=O)[C@H](C)NC(=O)[C@H](CCCNC(=N)N)NC(=O)[C@@H](NC(=O)[C@H](CCCCN)NC(=O)[C@H](CCC(=O)O)NC(=O)[C@H](CCCNC(=N)N)NC(=O)CNC(=O)[C@H](CCC(=O)O)NC(=O)[C@H](CC(C)C)NC(C)=O)C(C)C)[C@@H](C)CC)C(=O)N[C@@H](CO)C(=O)N[C@H](C(=O)N[C@@H](Cc1c[nH]c2ccccc12)C(=O)N[C@@H](CO)C(=O)N[C@@](C)(CCCCN)C(=O)N[C@@H](CCCNC(=N)N)C(=O)N[C@@H](C)C(=O)N[C@@H](CCCCNC(C)=O)C(N)=O)[C@@H](C)O)C(=O)O)C(=O)O)C(=O)O [compound 42] (Ac-LEGREKVRAK(Ac)I[Aib][Aib]EGK([AEEA-AEEA-AEEA-AEEA-γGlu-γGlu-γGlu-Palmitoyl])STWS[αMeK]RAK(Ac)-NH2)
0.45 | 96 | CCCCCCCCCCCCCCCC(=O)N[C@@H](CCC(=O)N[C@@H](CCC(=O)N[C@@H](CCC(=O)NCCOCCOCC(=O)NCCOCCOCC(=O)NCCOCCOCC(=O)NCCOCCOCC(=O)NCCOCCOCC(=O)NCCCC[C@H](NC(=O)CNC(=O)[C@H](CCC(=O)O)NC(=O)C(C)(C)NC(=O)C(C)(C)NC(=O)[C@@H](NC(=O)[C@H](CCCCNC(C)=O)NC(=O)[C@H](C)NC(=O)[C@H](CCCNC(=N)N)NC(=O)[C@@H](NC(=O)[C@H](CCCCN)NC(=O)[C@H](CCC(=O)O)NC(=O)[C@H](CCCNC(=N)N)NC(=O)CNC(=O)[C@H](CCC(=O)O)NC(=O)[C@H](CC(C)C)NC(C)=O)C(C)C)[C@@H](C)CC)C(=O)N[C@@H](CO)C(=O)N[C@H](C(=O)N[C@@H](Cc1ccccc1)C(=O)N[C@@H](CO)C(=O)N[C@@](C)(CCCCN)C(=O)N[C@@H](CCCNC(=N)N)C(=O)N[C@@H](C)C(=O)N[C@@H](CCCCNC(C)=O)C(N)=O)[C@@H](C)O)C(=O)O)C(=O)O)C(=O)O [compound 45] (Ac-LEGREKVRAK(Ac)I[Aib][Aib]EGK([AEEA-AEEA-AEEA-AEEA-AEEA-γGlu-γGlu-γGlu-Palmitoyl])STFS[αMeK]RAK(Ac)-NH2)
